The record followed here is US12685735B2 (Foghorn Therapeutics Inc., priority 2020, dated 2026).

One assay concerns the target BRM (Homo sapiens, UniProt P51531). Nature of the assay: ATPase catalytic activity assay of BRM (ADP-Glo). It is filed as biochemical. Conditions: for IC50: read-out: BRM IC50 (μM)*. A digest of the protocol: (§1)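 Two room-temperature incubations follow the reaction: 40 min to eliminate unused ATP, then 60 min to turn ADP into ATP driving luciferase light output. Activity is read as luminescence proportional to ADP formed.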

The target in a further assay is BRG-1 (Homo sapiens, UniProt P51532). In words: ATPase catalytic activity assay of BRG-1 (ADP-Glo). The class given is biochemical. Conditions: ATPase catalytic activity, ADP-Glo; for IC50: read-out: BRG1 IC50 (μM)*; for Emax: read-out: BRG1 Max % Inhibition. The essentials:
as §1

Molecules are shown by their SMILES. Where only a bound is given, the exact number is not on record here.

BRG-1, sequence (P51532 whole entry): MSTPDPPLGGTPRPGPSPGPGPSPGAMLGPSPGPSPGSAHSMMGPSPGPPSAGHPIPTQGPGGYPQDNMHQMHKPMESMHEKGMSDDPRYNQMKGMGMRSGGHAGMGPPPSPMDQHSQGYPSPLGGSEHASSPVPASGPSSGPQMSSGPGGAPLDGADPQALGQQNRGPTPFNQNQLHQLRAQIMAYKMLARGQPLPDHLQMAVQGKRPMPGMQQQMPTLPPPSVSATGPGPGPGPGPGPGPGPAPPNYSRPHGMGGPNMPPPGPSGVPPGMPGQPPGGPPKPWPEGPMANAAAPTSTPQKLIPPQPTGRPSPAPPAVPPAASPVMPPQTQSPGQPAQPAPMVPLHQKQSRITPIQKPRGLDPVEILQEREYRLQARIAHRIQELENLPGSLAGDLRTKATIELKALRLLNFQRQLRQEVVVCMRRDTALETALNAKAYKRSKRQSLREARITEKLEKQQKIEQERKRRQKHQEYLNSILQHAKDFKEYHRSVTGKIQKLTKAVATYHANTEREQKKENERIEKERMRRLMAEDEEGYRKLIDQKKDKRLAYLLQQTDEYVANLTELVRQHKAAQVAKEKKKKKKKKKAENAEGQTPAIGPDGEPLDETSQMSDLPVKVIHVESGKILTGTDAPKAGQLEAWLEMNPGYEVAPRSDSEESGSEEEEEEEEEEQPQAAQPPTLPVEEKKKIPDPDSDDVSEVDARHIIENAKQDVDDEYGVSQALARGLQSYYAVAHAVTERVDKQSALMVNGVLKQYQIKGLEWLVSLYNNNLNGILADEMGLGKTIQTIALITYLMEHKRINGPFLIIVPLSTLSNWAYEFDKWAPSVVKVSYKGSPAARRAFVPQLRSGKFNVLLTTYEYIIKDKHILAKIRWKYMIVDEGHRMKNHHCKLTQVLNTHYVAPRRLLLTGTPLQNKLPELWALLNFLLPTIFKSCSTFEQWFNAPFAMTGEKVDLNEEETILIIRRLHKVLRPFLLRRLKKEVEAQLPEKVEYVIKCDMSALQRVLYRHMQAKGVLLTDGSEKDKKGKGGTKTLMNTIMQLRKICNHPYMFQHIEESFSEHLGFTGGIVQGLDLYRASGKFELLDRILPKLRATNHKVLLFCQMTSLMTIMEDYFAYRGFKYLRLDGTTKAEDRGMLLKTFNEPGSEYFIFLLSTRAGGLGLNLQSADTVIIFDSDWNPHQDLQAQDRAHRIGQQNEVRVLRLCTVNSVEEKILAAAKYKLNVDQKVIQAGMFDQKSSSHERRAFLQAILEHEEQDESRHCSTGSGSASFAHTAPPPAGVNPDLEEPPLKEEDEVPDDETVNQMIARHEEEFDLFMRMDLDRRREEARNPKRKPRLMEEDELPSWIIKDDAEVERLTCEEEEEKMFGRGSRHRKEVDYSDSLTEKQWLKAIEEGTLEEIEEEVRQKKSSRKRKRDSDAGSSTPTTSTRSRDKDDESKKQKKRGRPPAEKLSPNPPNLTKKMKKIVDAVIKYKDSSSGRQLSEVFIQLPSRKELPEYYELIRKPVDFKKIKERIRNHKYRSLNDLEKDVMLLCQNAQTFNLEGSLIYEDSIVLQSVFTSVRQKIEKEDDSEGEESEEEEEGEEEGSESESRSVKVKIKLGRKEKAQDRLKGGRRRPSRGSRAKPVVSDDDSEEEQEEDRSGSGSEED
BRM, sequence (P51531 whole entry): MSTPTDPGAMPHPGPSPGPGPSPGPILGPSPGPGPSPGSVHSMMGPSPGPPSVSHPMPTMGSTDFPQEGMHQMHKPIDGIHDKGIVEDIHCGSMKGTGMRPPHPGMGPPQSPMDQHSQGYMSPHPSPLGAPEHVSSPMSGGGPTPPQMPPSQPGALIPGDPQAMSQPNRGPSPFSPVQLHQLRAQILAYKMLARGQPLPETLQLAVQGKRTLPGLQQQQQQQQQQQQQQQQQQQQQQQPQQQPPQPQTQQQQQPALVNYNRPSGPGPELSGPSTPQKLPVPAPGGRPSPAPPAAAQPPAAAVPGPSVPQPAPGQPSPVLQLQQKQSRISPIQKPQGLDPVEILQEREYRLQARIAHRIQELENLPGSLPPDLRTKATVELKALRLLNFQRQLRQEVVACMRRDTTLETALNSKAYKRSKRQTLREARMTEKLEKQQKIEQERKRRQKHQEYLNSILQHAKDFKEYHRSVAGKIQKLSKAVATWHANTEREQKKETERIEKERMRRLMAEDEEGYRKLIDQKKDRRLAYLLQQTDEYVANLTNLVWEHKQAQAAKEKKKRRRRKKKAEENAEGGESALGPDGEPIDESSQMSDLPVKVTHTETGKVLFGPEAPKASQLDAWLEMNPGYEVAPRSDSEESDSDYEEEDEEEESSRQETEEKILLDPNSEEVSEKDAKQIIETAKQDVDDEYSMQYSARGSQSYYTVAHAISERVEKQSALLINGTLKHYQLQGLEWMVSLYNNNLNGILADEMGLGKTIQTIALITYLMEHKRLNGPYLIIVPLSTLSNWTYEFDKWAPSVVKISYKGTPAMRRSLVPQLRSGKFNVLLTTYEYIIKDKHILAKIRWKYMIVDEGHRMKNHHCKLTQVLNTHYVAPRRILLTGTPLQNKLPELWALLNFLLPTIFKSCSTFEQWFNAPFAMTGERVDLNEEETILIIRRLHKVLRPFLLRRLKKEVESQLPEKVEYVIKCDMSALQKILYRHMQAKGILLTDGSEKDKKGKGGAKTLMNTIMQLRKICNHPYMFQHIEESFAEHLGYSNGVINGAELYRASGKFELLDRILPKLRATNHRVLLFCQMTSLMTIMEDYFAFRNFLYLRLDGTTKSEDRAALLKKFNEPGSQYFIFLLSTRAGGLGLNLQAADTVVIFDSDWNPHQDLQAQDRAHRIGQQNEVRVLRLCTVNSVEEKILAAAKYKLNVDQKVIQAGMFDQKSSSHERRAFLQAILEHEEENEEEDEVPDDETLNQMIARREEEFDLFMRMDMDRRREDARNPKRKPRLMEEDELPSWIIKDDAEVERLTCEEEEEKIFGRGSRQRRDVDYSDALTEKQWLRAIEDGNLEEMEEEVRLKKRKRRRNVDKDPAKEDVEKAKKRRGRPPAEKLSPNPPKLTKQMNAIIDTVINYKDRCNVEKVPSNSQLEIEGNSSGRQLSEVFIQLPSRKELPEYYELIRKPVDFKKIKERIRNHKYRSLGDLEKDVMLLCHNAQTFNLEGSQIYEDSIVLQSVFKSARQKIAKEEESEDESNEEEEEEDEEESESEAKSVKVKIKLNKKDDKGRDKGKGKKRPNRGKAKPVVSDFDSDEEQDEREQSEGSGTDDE

For the compound `C[C@@]1(C#N)COCc2ccc(C(=O)NCC(=O)Nc3nc(-c4cccc([C@H]5CC5(F)F)n4)cs3)cc21` [Compound 387, (R)-4-cyano-N-(2-((4-(6-((R)-2,2-difluorocyclopropyl)pyridin-2-yl)thiazol-2-yl)amino)-2-oxoethyl)-4-methylisochromane-6-carboxamide], at BRM, the “BRM Max % Inhibition” value is on record as greater than 95% and the IC50 is less than 0.1 µM. Besides, at BRG-1, the IC50 was in the range of 1 to 5 µM and the Emax is greater than 95%.
On the same counts, the results for `C[C@@]1(C#N)COCc2ccc(C(=O)NCC(=O)Nc3nc(-c4cccc([C@@H]5CC5(F)F)c4)cs3)cc21` [Compound 388, (R)-4-cyano-N-(2-((4-(3-((S)-2,2-difluorocyclopropyl)phenyl)thiazol-2-yl)amino)-2-oxoethyl)-4-methylisochromane-6-carboxamide] are greater than 95%, less than 0.1 µM, less than 0.1 µM and greater than 95%.
On the same counts, the results for `Cn1ccc2ccc(-c3csc(NC(=O)CNC(=O)c4ccc5c(c4)[C@](C)(F)COC5)n3)cc2c1=O` [Compound 389, (S)-4-fluoro-4-methyl-N-(2-((4-(2-methyl-1-oxo-1,2-dihydroisoquinolin-7-yl)thiazol-2-yl)amino)-2-oxoethyl)isochromane-6-carboxamide] are greater than 95%, less than 0.1 µM, less than 0.1 µM and greater than 95%.
The corresponding values for `COC1CN(c2cccc(-c3csc(NC(=O)CNC(=O)c4ccc5c(c4)[C@](C)(C#N)COC5)n3)c2)C1` [Compound 390, (R)-4-cyano-N-(2-((4-(3-(3-methoxyazetidin-1-yl)phenyl)thiazol-2-yl)amino)-2-oxoethyl)-4-methylisochromane-6-carboxamide] are greater than 95%, less than 0.1 µM, less than 0.1 µM and greater than 95%.
As for `C[C@@]1(C#N)COCc2ccc(C(=O)NCC(=O)Nc3nc(-c4cccc([C@H]5CC5(F)F)c4)cs3)cc21` [Compound 391, (R)-4-cyano-N-(2-((4-(3-((R)-2,2-difluorocyclopropyl)phenyl)thiazol-2-yl)amino)-2-oxoethyl)-4-methylisochromane-6-carboxamide], at BRM, the “BRM Max % Inhibition” value is given as greater than 95% and the IC50 is less than 0.1 µM. Also, on BRG-1, the IC50 fell in the range of 0.1 to 1 µM and the Emax was greater than 95%.
The corresponding values for `C[C@@H]1CN(c2cccc(-c3csc(NC(=O)CNC(=O)c4cccc([C@]5(C)C[C@@H](O)C5)c4)n3)c2)C[C@H](C)O1` [Compound 392, N-(2-((4-(3-((cis)-2,6-dimethylmorpholino)phenyl)thiazol-2-yl)amino)-2-oxoethyl)-3-((1r,3r)-3-hydroxy-1-methylcyclobutyl)benzamide] are greater than 90%, 0.1 to 1 µM, greater than 5 µM and greater than 90%.
For `C[C@@H]1CN(c2cccc(-c3csc(NC(=O)CNC(=O)c4cccc([C@]5(C)C[C@H](O)C5)c4)n3)c2)C[C@H](C)O1` [Compound 393, N-(2-((4-(3-((cis)-2,6-dimethylmorpholino)phenyl)thiazol-2-yl)amino)-2-oxoethyl)-3-((1s,3s)-3-hydroxy-1-methylcyclobutyl)benzamide], on BRM, the “BRM Max % Inhibition” value is greater than 95% and the IC50 is 0.1 to 1 µM. Besides, at BRG-1, the IC50 was greater than 5 µM and the Emax is greater than 95%.
On the same counts, the results for `COc1cccc(-c2csc(NC(=O)CNC(=O)c3ccc4c(c3)C(C)(C#N)CCN4C)n2)c1` (stereo not drawn) [Compound 394, 4-cyano-N-(2-((4-(3-methoxyphenyl)thiazol-2-yl)amino)-2-oxoethyl)-1,4-dimethyl-1,2,3,4-tetrahydroquinoline-6-carboxamide] are greater than 80%, 0.1 to 1 µM, greater than 5 µM and greater than 80%.
The corresponding values for `CC(C)N1CCOc2ccc(C(=O)NCC(=O)Nc3nc(-c4cccc(N5C[C@@H](C)O[C@@H](C)C5)n4)cs3)cc21` [Compound 395, N-(2-((4-(6-((cis)-2,6-dimethylmorpholino)pyridin-2-yl)thiazol-2-yl)amino)-2-oxoethyl)-4-isopropyl-3,4-dihydro-2H-benzo[b][1,4]oxazine-6-carboxamide] are greater than 80%, 0.1 to 1 µM, greater than 5 µM and greater than 80%.
The corresponding values for `C[C@@H]1CN(c2cccc(-c3csc(NC(=O)CNC(=O)c4ccc5c(c4)S(=O)(=O)CCC5)n3)c2)C[C@H](C)O1` [Compound 396, N-(2-((4-(3-((cis)-2,6-dimethylmorpholino)phenyl)thiazol-2-yl)amino)-2-oxoethyl)thiochromane-7-carboxamide 1,1-dioxide] are greater than 90%, 0.1 to 1 µM, 1 to 5 µM and greater than 90%.
For the compound `COc1cccc(-c2csc(NC(=O)CNC(=O)c3ccc4c(c3)[C@](C)(C#N)COC4)n2)n1` [Compound 397, (R)-4-cyano-N-(2-((4-(6-methoxypyridin-2-yl)thiazol-2-yl)amino)-2-oxoethyl)-4-methylisochromane-6-carboxamide], on BRM, the “BRM Max % Inhibition” value is greater than 95% and the IC50 was less than 0.1 µM. At BRG-1, the IC50 is 0.1 to 1 µM and the Emax was greater than 95%.
On the same counts, the results for `C[C@@]1(C#N)COCc2ccc(C(=O)NCC(=O)Nc3nc(-c4cccc(C(F)F)c4)cs3)cc21` [Compound 398, (R)-4-cyano-N-(2-((4-(3-(difluoromethyl)phenyl)thiazol-2-yl)amino)-2-oxoethyl)-4-methylisochromane-6-carboxamide] are greater than 95%, less than 0.1 µM, 0.1 to 1 µM and greater than 95%.
The corresponding values for `COc1cc(-c2csc(NC(=O)CNC(=O)c3ccc4c(c3)[C@](C)(C#N)COC4)n2)ccc1F` [Compound 399, (R)-4-cyano-N-(2-((4-(4-fluoro-3-methoxyphenyl)thiazol-2-yl)amino)-2-oxoethyl)-4-methylisochromane-6-carboxamide] are greater than 95%, less than 0.1 µM, 0.1 to 1 µM and greater than 95%.
On the same counts, the results for `COc1cc(-c2csc(NC(=O)CNC(=O)c3ccc4c(c3)[C@](C)(C#N)COC4)n2)ccn1` [Compound 400, (R)-4-cyano-N-(2-((4-(2-methoxypyridin-4-yl)thiazol-2-yl)amino)-2-oxoethyl)-4-methylisochromane-6-carboxamide] are greater than 95%, less than 0.1 µM, 0.1 to 1 µM and greater than 95%.
For `COc1cccc(-c2csc(NC(=O)CNC(=O)c3ccc4c(c3)[C@](C)(C#N)COC4)n2)c1` [Compound 401, (R)-4-cyano-N-(2-((4-(3-methoxyphenyl)thiazol-2-yl)amino)-2-oxoethyl)-4-methylisochromane-6-carboxamide], at BRM, the “BRM Max % Inhibition” value was greater than 95% and the IC50 is less than 0.1 µM. For the same compound, on BRG-1, the IC50 lay within 0.1 to 1 µM and the Emax is greater than 95%.
